The supplement of paper PMC11451515

Tested on: P12-Ichikawa
Assay: cell viability relative to DMSO control; higher = less cytotoxic
Details: 48 h
Method in brief: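 NOMO1, SEM and P12-Ichikawa leukemia cells spent at least four passages adapting to each medium before use. They were seeded at 500 cells/well (NOMO1, SEM) or 1000 cells/well (P12-Ichikawa) in 5 μl in 1536-well plates and pin-dosed with library compounds in DMSO at 11 threefold steps from 47 μM down to 0.79 nM. After 48 h at 37°C, CellTiter-Glo One luminescence was read. Viability is reported as a percentage of the DMSO wells on each plate, with cell-free wells as background.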

O=C1CSC(=O)N1C(CCc1ccncc1)COc1ccc(-c2cccc([N+](=O)[O-])c2)cc1 (configuration not stated)
cell viability [%]
Details	HPLM + 10% dialyzed FBS	RPMI 5 mM glucose + 10% FBS
0.000781 µM	115	122
0.00234 µM	119	134
0.00702 µM	122	116
0.0211 µM	118	107
0.0632 µM	118	114
0.19 µM	115	91.3
0.569 µM	111	99.1
1.71 µM	111	110
5.12 µM	95.7	87.4
15.4 µM	108	93.7
46.1 µM	90.1	82.3
